Assay results published in PubChem BioAssay (NCI).
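48-hour exposure; five concentrations; linearly interpolated endpoints. At the TGI there is no net growth.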

Tests used:
Assay in all cases: DTP human tumour cell line panel, 48 h
UACC-62 melanoma = system: UACC-62 melanoma
LOX IMVI melanoma = system: LOX IMVI melanoma
HS 578T breast = system: HS 578T breast
ACHN renal = system: ACHN renal
RXF 393 renal = system: RXF 393 renal
K-562 leukemia = system: K-562 leukemia
COLO 205 colon = system: COLO 205 colon
UO-31 renal = system: UO-31 renal
RPMI-8226 leukemia = system: RPMI-8226 leukemia
U251 CNS = system: U251 CNS
786-0 renal = system: 786-0 renal
SNB-19 CNS = system: SNB-19 CNS
MDA-N = system: MDA-N
DU-145 prostate = system: DU-145 prostate
SF-268 CNS = system: SF-268 CNS
SK-MEL-5 melanoma = system: SK-MEL-5 melanoma
M14 melanoma = system: M14 melanoma
MDA-MB-231 breast = system: MDA-MB-231 breast
OVCAR-3 ovarian = system: OVCAR-3 ovarian
HCC-2998 colon = system: HCC-2998 colon
HOP-92 NSCLC = system: HOP-92 NSCLC
MDA-MB-435 = system: MDA-MB-435
T-47D breast = system: T-47D breast
UACC-257 melanoma = system: UACC-257 melanoma
HCT-116 colon = system: HCT-116 colon
SF-295 CNS = system: SF-295 CNS
IGROV1 ovarian = system: IGROV1 ovarian
MALME-3M melanoma = system: MALME-3M melanoma
A498 renal = system: A498 renal
MOLT-4 leukemia = system: MOLT-4 leukemia
SN12C renal = system: SN12C renal
OVCAR-8 ovarian = system: OVCAR-8 ovarian
NCI/ADR-RES ovarian = system: NCI/ADR-RES ovarian
SR leukemia = system: SR leukemia
EKVX NSCLC = system: EKVX NSCLC
PC-3 prostate = system: PC-3 prostate
OVCAR-5 ovarian = system: OVCAR-5 ovarian
SK-MEL-28 melanoma = system: SK-MEL-28 melanoma
A549 NSCLC = system: A549 NSCLC
KM12 colon = system: KM12 colon
NCI-H522 lung = system: NCI-H522 lung
HCT-15 colon = system: HCT-15 colon
HL-60(TB) leukemia = system: HL-60(TB) leukemia
TK-10 renal = system: TK-10 renal
SK-MEL-2 melanoma = system: SK-MEL-2 melanoma
SW-620 colon = system: SW-620 colon
SNB-75 CNS = system: SNB-75 CNS
NCI-H460 lung = system: NCI-H460 lung
NCI-H226 lung = system: NCI-H226 lung
BT-549 breast = system: BT-549 breast
MCF7 breast = system: MCF7 breast
CAKI-1 renal = system: CAKI-1 renal
CCRF-CEM leukemia = system: CCRF-CEM leukemia
SF-539 CNS = system: SF-539 CNS
OVCAR-4 ovarian = system: OVCAR-4 ovarian
NCI-H23 lung = system: NCI-H23 lung
HOP-62 NSCLC = system: HOP-62 NSCLC
HT29 colon = system: HT29 colon
SK-OV-3 ovarian = system: SK-OV-3 ovarian

N#Cc1c(N)c2c(c(-c3ccccc3)c1-c1ccccc1)C(=O)N(NC(=O)c1ccccc1)C2=O
TGI (UACC-62 melanoma): > 100 µM | TGI (LOX IMVI melanoma): > 100 µM | TGI (HS 578T breast): > 100 µM | TGI (ACHN renal): > 100 µM | TGI (RXF 393 renal): > 100 µM | TGI (K-562 leukemia): > 100 µM | TGI (COLO 205 colon): > 100 µM | TGI (UO-31 renal): > 100 µM | TGI (RPMI-8226 leukemia): > 100 µM | TGI (U251 CNS): > 100 µM | TGI (786-0 renal): > 100 µM | TGI (SNB-19 CNS): > 100 µM | TGI (MDA-N): > 100 µM | TGI (DU-145 prostate): > 100 µM | TGI (SF-268 CNS): > 100 µM | TGI (SK-MEL-5 melanoma): > 100 µM | TGI (M14 melanoma): > 100 µM | TGI (MDA-MB-231 breast): > 100 µM | TGI (OVCAR-3 ovarian): > 100 µM | TGI (HCC-2998 colon): > 100 µM | TGI (HOP-92 NSCLC): > 100 µM | TGI (MDA-MB-435): > 100 µM | TGI (T-47D breast): > 100 µM | TGI (UACC-257 melanoma): > 100 µM | TGI (HCT-116 colon): > 100 µM | TGI (SF-295 CNS): > 100 µM | TGI (IGROV1 ovarian): > 100 µM | TGI (MALME-3M melanoma): > 100 µM | TGI (A498 renal): > 100 µM | TGI (MOLT-4 leukemia): > 100 µM | TGI (SN12C renal): > 100 µM | TGI (OVCAR-8 ovarian): > 100 µM | TGI (NCI/ADR-RES ovarian): > 100 µM | TGI (SR leukemia): > 100 µM | TGI (EKVX NSCLC): > 100 µM | TGI (PC-3 prostate): > 100 µM | TGI (OVCAR-5 ovarian): > 100 µM | TGI (SK-MEL-28 melanoma): > 100 µM | TGI (A549 NSCLC): > 100 µM | TGI (KM12 colon): > 100 µM | TGI (NCI-H522 lung): > 100 µM | TGI (HCT-15 colon): > 100 µM | TGI (HL-60(TB) leukemia): > 100 µM | TGI (TK-10 renal): > 100 µM | TGI (SK-MEL-2 melanoma): > 100 µM | TGI (SW-620 colon): > 100 µM | TGI (SNB-75 CNS): > 100 µM | TGI (NCI-H460 lung): > 100 µM | TGI (NCI-H226 lung): > 100 µM | TGI (BT-549 breast): > 100 µM | TGI (MCF7 breast): > 100 µM | TGI (CAKI-1 renal): > 100 µM | TGI (CCRF-CEM leukemia): > 100 µM | TGI (SF-539 CNS): > 100 µM | TGI (OVCAR-4 ovarian): > 100 µM

COC(=O)[C@]12CCC(C)(C)C[C@H]1C1=CC[C@@H]3[C@@]4(C)CC[C@H](OC5OC(CO)C(O)C(O)C5OC5OC(CO)C(O)C(O)C5O)C(C)(C)[C@@H]4CC[C@@]3(C)[C@]1(C)CC2 (some centres not stated)
TGI (UACC-62 melanoma): 23.9 µM | TGI (LOX IMVI melanoma): 20.2 µM | TGI (HS 578T breast): 56.8 µM | TGI (ACHN renal): 20.5 µM | TGI (RXF 393 renal): 19.7 µM | TGI (K-562 leukemia): 25.4 µM | TGI (COLO 205 colon): 10.4 µM | TGI (UO-31 renal): 10.9 µM | TGI (RPMI-8226 leukemia): 48.3 µM | TGI (U251 CNS): 26.3 µM | TGI (786-0 renal): 23.8 µM | TGI (NCI-H23 lung): 19.6 µM | TGI (SNB-19 CNS): 29.6 µM | TGI (MDA-N): 18.4 µM | TGI (HOP-62 NSCLC): 25.3 µM | TGI (DU-145 prostate): 24.5 µM | TGI (SF-268 CNS): 31.2 µM | TGI (SK-MEL-5 melanoma): 29.3 µM | TGI (M14 melanoma): 13.9 µM | TGI (MDA-MB-231 breast): 7.2 µM | TGI (OVCAR-3 ovarian): 22.4 µM | TGI (HCC-2998 colon): 37.9 µM | TGI (HOP-92 NSCLC): 13 µM | TGI (MDA-MB-435): 20.8 µM | TGI (T-47D breast): 36.3 µM | TGI (UACC-257 melanoma): 20.3 µM | TGI (HCT-116 colon): 18.7 µM | TGI (HT29 colon): 22.1 µM | TGI (SF-295 CNS): 27.2 µM | TGI (IGROV1 ovarian): 28.7 µM | TGI (MALME-3M melanoma): 25.2 µM | TGI (A498 renal): 23.5 µM | TGI (MOLT-4 leukemia): 40.8 µM | TGI (SN12C renal): 15.9 µM | TGI (OVCAR-8 ovarian): 34 µM | TGI (NCI/ADR-RES ovarian): 29.1 µM | TGI (SR leukemia): 26.8 µM | TGI (EKVX NSCLC): 26 µM | TGI (PC-3 prostate): 15.3 µM | TGI (OVCAR-5 ovarian): 30.5 µM | TGI (SK-MEL-28 melanoma): 12.3 µM | TGI (A549 NSCLC): 22.2 µM | TGI (SK-OV-3 ovarian): 36.1 µM | TGI (KM12 colon): 26.9 µM | TGI (NCI-H522 lung): 8.71 µM | TGI (HCT-15 colon): 25 µM | TGI (HL-60(TB) leukemia): 19.4 µM | TGI (SK-MEL-2 melanoma): 23.9 µM | TGI (SW-620 colon): 27.7 µM | TGI (SNB-75 CNS): 26.4 µM | TGI (NCI-H460 lung): 30.2 µM | TGI (NCI-H226 lung): 14.5 µM | TGI (BT-549 breast): 35.8 µM | TGI (MCF7 breast): 24.4 µM | TGI (CAKI-1 renal): 21 µM | TGI (CCRF-CEM leukemia): 33.8 µM | TGI (OVCAR-4 ovarian): 15.6 µM
